{"source": "patent US6083922A", "about": "(priority 1997, dated 2000)", "key": {"[1]": {"tested_on": "Multidrug-Resistant Strains of M. tuberculosis", "experiment": "microbe, parasite or virus in culture", "assay_type": "cell-based, Mycobacterium tuberculosis", "conditions": "for MIC: Mycobacterium tuberculosis"}, "[2]": {"tested_on": "drug-sensitive and multidrug-resistant strains of M. tuberculosis", "experiment": "Survey of tobramycin MICs", "assay_type": "cell-based", "conditions": "Mycobacterium tuberculosis"}}, "note": "Like-named read-outs stand apart in the source and are kept apart here.", "data": [{"smiles": "NC[C@H]1O[C@H](O[C@H]2[C@H](O)[C@@H](O[C@H]3O[C@H](CO)[C@@H](O)[C@H](N)[C@H]3O)[C@H](N)C[C@@H]2N)[C@H](N)C[C@@H]1O", "note": "[tobramycin]", "values": [{"measurement": "sensitivity of multidrug-resistant strains to tobramycin", "setting": "[1]", "value": "sensitive and nonresistant"}, {"measurement": "MIC", "setting": "[1]; read-out: MIC Tobramycin, strain TN565 (resistant to INH, RIF, SM, KAN)", "value": "> 128", "unit": "µg/mL"}, {"measurement": "MIC", "setting": "[1]; read-out: MIC Tobramycin, strain TN576 (resistant to INH, RIF, SM, EMB, KAN)", "value": "> 128", "unit": "µg/mL"}, {"measurement": "MIC", "setting": "[1]; read-out: MIC Tobramycin, strain TN587 (resistant to INH, RIF, SM, EMB, KAN)", "value": "> 128", "unit": "µg/mL"}, {"measurement": "MIC", "setting": "[1]; read-out: MIC Tobramycin, strain TN702 (resistant to INH, SM)", "value": 4, "unit": "µg/mL"}, {"measurement": "MIC", "setting": "[1]; read-out: MIC Tobramycin, strain TN715 (resistant to INH, RIF, SM)", "value": 4, "unit": "µg/mL"}, {"measurement": "MIC", "setting": "[1]; read-out: MIC Tobramycin, strain TN768 (resistant to INH, RIF, SM, EMB)", "value": 8, "unit": "µg/mL"}, {"measurement": "MIC", "setting": "[1]; read-out: MIC Tobramycin, strain TN1195 (resistant to INH, SM)", "value": 4, "unit": "µg/mL"}, {"measurement": "MIC", "setting": "[1]; read-out: MIC Tobramycin, strain TN1314 (resistant to INH, RIF)", "value": 8, "unit": "µg/mL"}, {"measurement": "MIC", "setting": "[1]; read-out: MIC Tobramycin, strain TN1811 (resistant to INH, RIF, SM, EMB)", "value": 4, "unit": "µg/mL"}, {"measurement": "MIC", "setting": "[1]; read-out: MIC Tobramycin, strain TN2015 (resistant to INH, RIF, SM, KAN)", "value": "> 128", "unit": "µg/mL"}, {"measurement": "MIC", "setting": "[1]; read-out: MIC Tobramycin, strain TN2557 (resistant to INH, RIF, SM)", "value": 8, "unit": "µg/mL"}, {"measurement": "MIC", "setting": "[1]; read-out: MIC Tobramycin, strain TN3806 (resistant to INH, RIF, SM, EMB, KAN)", "value": "> 128", "unit": "µg/mL"}, {"measurement": "MIC", "setting": "[1]; read-out: activity against multidrug-resistant strains", "value": "4 to 8", "unit": "µg/mL"}, {"measurement": "MIC", "setting": "[2]", "value": "> 128", "unit": "µg/mL"}, {"measurement": "MIC", "setting": "[2]; read-out: minimal inhibitory concentrations (MICs)", "value": "≤ 8", "unit": "µg/mL"}]}]}
